Assay results taken from ChEMBL document CHEMBL1137040, “Estrone formate: a novel type of irreversible inhibitor of human steroid sulfatase” (Bioorg Med Chem Lett, 2004).

Molecular target: T1, Steryl-sulfatase (Homo sapiens, UniProt P08842)
T1 sequence (P08842 whole entry): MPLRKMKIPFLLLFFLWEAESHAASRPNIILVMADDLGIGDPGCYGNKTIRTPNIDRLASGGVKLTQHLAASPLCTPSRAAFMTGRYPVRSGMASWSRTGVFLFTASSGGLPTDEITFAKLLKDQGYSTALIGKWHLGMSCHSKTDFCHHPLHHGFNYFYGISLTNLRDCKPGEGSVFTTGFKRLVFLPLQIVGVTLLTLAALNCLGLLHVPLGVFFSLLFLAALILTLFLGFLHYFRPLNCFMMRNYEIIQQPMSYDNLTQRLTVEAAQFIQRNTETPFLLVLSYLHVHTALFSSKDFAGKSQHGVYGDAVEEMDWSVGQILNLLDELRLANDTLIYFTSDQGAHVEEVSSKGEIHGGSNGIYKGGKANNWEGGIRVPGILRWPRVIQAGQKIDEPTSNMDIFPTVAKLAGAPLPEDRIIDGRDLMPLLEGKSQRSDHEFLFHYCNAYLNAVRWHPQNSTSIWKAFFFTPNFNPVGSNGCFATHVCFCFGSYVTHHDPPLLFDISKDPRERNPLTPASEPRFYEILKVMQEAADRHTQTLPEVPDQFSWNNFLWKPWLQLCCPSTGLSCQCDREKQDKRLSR
Assay: Inhibition of purified human steroid sulfatase

Compound	IC50
O=COc1ccc2nc(C=C3C4CC5CC(C4)CC3C5)oc2c1	1.5 µM
Oc1ccc2nc(C=C3C4CC5CC(C4)CC3C5)oc2c1	0.26 µM
C[C@]12CC[C@H](OC=O)C=C1CCC1C2CC[C@]2(C)C(=O)CCC12 (stereo partly drawn)	> 10 µM
C[C@]12CC[C@@H]3c4ccc(OC(=O)NCc5ccccc5)cc4CCC3[C@@H]1CCC2=O (single isomer, unassigned)	> 50 µM
CC(C)(C)OC(=O)NCC(=O)Oc1ccc2c(c1)CCC1[C@@H]2CC[C@]2(C)C(=O)CC[C@@H]12 (single isomer, unassigned)	> 50 µM
C[C@]12CC[C@@H]3c4ccc(OC=O)cc4CCC3[C@@H]1CCC2=O (single isomer, unassigned)	0.42 µM
C[C@]12CC[C@@H]3c4ccc(OC(=O)CN)cc4CCC3[C@@H]1CCC2=O (single isomer, unassigned)	> 50 µM
C[C@]12CC[C@@H]3c4ccc(OC#N)cc4CCC3[C@@H]1CCC2=O (single isomer, unassigned)	> 50 µM
CC(=O)Oc1ccc2c(c1)CCC1[C@@H]2CC[C@]2(C)C(=O)CC[C@@H]12 (single isomer, unassigned)	> 50 µM
C[C@]12CC[C@@H]3c4ccc(OC(=N)S)cc4CCC3[C@@H]1CCC2=O (single isomer, unassigned)	> 50 µM
C[C@]12CC[C@@H]3c4ccc(OC(N)=O)cc4CCC3[C@@H]1CCC2=O (single isomer, unassigned)	> 50 µM
C[C@]12CC[C@@H]3c4ccc(OS(N)(=O)=O)cc4CCC3[C@@H]1CCC2=O (single isomer, unassigned) [EMATE]	0.05 µM
O=COc1ccccc1 [FORMIC ACID PHENYL ESTER]	> 30 µM
